Key:
Sunflower = assay: Test 10 postemergence safety to crops and weed control; assay type: in vivo; settings: 16 g/ha, scale 0-100
Experimental: (§1) The object of these tests was to evaluate the compound of this invention for postemergence safety to crops and weed control. Seedling and budded Macedine grapes were grown in 11.4-cm pots. Flax, green foxtail (Setaria viridis), "Morex" barley, wild oats (Avena fatua), "Era" wheat, annual ryegrass (Lolium multiflorum), wild radish (Raphanus raphanistrum), rape, sunflower, chickweed (Stellaria media) and wild buckwheat (Polygonum convolvulus) were seeded in windowsill pots.
(§2) The plants were sprayed postemergence with Compound I in a non-phytotoxic solvent. Plants were visually rated 15 and 27 days after treatment (DAT). Injury and weed control ratings were based on the scale of 0 to 100 where 0 = no effect, 20 minimal control and 100 = complete control.

Rape = assay: as above; assay type: in vivo; settings: 16 g/ha, scale 0-100
Experimental: as §1, §2

Flax = assay: as above; assay type: in vivo; settings: 16 g/ha, scale 0-100
Experimental: as §1, §2

Morex barley = assay: as above; assay type: in vivo; settings: 16 g/ha, scale 0-100
Experimental: as §1, §2

Era wheat = assay: as above; assay type: in vivo; settings: 16 g/ha, scale 0-100
Experimental: as §1, §2

Cirsium arvense = assay: Test 2 perennial weeds from rhizomes; assay type: in vivo; settings: 0.5% v/v non-ionic surfactant, scale 0-100
Experimental: (§3) Rhizomes of Agropyron repens and Cirsium arvense were planted in 17.5-cm plastic pots and grown in the greenhouse for 5 months prior to herbicide application. Plants were 24 to 35 cm tall and releasing lateral buds at the time of treatment. Compound I was diluted in water containing 0.5% v/v non-ionic surfactant and applied to the plants. The degree of weed control was visually rated 36 days after application of the herbicide. Control ratings were based upon comparison to an untreated control using a scale of 0 to 100 where 0 indicated no effect and […] represented death of all foliar portions with no regrowth apparent.

Agropyron repens = assay: Test 2 perennial weeds from rhizomes; assay type: in vivo; settings: 0.5% v/v non-ionic surfactant, scale 0-100
Experimental: as §3

Grapes = assay: Test 10 postemergence safety to crops and weed control; assay type: in vivo, Macedine grapes; settings: scale 0-100
Experimental: as §1, §2

Johnsongrass = assay: Test 11 windowsill flats, postemergence; assay type: in vivo, Sorghum halepense; settings: Postemergence 32 g/ha, 0.25% X-77 surfactant, scale 0-100
Experimental: (§4) Budded citrus seedlings were planted in 30-liter plastic pots which were also seeded with sandbur, guineagrass, narrowleaf panicum, common ragweed, yellow nutsedge, purple nutsedge and bindweed. Compound I was applied preemergence and postemergence to the weeds. Treatments were sprayed to simulate the trunk-to-trunk herbicide application method used in some citrus groves. The compound was also applied postemergence to weeds grown in windowsill flats. The flats were filled with planting medium and seeded with morningglory (Ipomoea spp.). purple nutsedge (Cyperus rotundus), pigweed (Amaranthus spp.), bindweed (Convolvulus spp.), narrowleaf panicum (Panicum maximum), common ragweed (Ambrosia artemisiifolia), sandbur (Cenchrus echinatus), itchgrass (Rottboellia exaltata), johnsongrass (Sorghum halepense), guineagrass (Panicum maximum), smooth crabgrass (Digitaria ischaemum), broadleaf signalgrass (Brachiaria platyphylla), bermudagrass (Cynodon dactylon), goosegrass (Eleusine indica), large crabgrass (Digitaria sanguinalis) and yellow nutsedge (Cyperus esculentus).
(§5) The compound was formulated and sprayed with 0.25% X-77 surfactant in water. Plants were visually rated 21 and 29 days after treatment and compared with appropriate controls. Injury ratings were based on the scale of 0 to 100, where 0 indicates no effect, 20 indicates minimum effect and 100 indicates complete control. […]

weed = assay: Test 6 effect of surfactants, postemergence; assay type: in vivo; settings: addition of a surfactant
Source text: The object of this test was to evaluate the effect of surfactants and plant growth stage on the efficacy of the compound of this invention. Plastic windowsill pots were filled with planting medium and seeded with yellow nutsedge (Cyperus esculentus), large crabgrass (Digitaria sanguinalis), goosegrass (Elsusine indica), bermudagrass (Cynodon dactylon), broadleaf signalgrass (Brachiara platyphalla), smooth crabgrass (Digitaria ischaemum), guinea grass (Panicum maximum) and johnsongrass (Sorghum halapense). Coffee (Coffea spp) plants with 2 to 4 branches were included in one test.
Plants were treated postemergence with Compound I formulated with different surfactants or a non-phytotoxic carrier made up of acetone-humectant-water-surfactant.

Narrowleaf panicum = assay: Test 5 sugarcane injury and weed control, postemergence; assay type: in vivo, Panicum maximum; settings: scale 0-100
Experimental: (§6) Sugarcane (Saccharum spp.) cuttings which had been pre-sprouted were planted in 15-cm plastic pots. Narrowleaf panicum (Panicum maximum), large crabgrass (Digitaria sanguinalis), guineagrass (P. maximum) and itchgrass (Rottboellia exaltata) were seeded in individual 15-cm plastic pots.
(§7) The pots were treated postemergence when the plants had 3 to 4 leaves with 2 to 3 tillers with Compound I formulated in a non-phytotoxic carrier made up of acetone-humectant-water-surfactant (22:1:1:0.05 v/v). The degree of crop injury and weed control was visually rated 27 days after treatment (DAT). Plant injury ratings are based on the scale of 0 to 100 where 0 = no effect, 20 = minimal injury and 100 = complete control.

Itchgrass = assay: as above; assay type: in vivo, Rottboellia exaltata; settings: scale 0-100
Experimental: as §6, §7

Yellow nutsedge = assay: Test 11 citrus pots, preemergence to the weeds; assay type: in vivo, Cyperus esculentus; settings: Preemergence 32 g/ha; 0.25% X-77 surfactant; scale 0-100
Experimental: as §4, §5

Ball mustard = assay: Test 7 postemergence; assay type: in vivo, Neslia paniculata; settings: scale 0-100
Experimental: Individual 11.4-cm plastic pots filled with planting medium were seeded with rape, wild radish (Raphanus raphanistruna). tansy mustard (Descurainia pinnata), ball mustard (Neslia paniculata), black mustard (Brassica nigra), yellow mustard, brown mustard, lentils, safflower, flax, sunflower, peanut, vetch, alfalfa, field bean, pea, violet (Viola spp), Kochia (Kochia spp), Russian thistle (Salsola spp), Matricaria spp, groundsel (Senecio spp), shepherdspurse (Capsella bursa-pastoris), nightshade (Solanum spp), sowthistle (Sonchus spp), sugar beet, wheat, "Bonanza" barley and "Morex" barley, Kentucky bluegrass (Poa pratensis), red clover (Trifolium pratense), dandelion (Taraxacum spp) and buckhorn plantain (Plantago lanceolata).
Plants were treated postemergence with the compound formulated with a non-phytotoxic carrier. Plants were visually rated 18 days after treatment (DAT). Response ratings were based on the scale of 0 to 100 where 0 = no effect, 20 = minimal injury and 100 = complete control.

In the case of `COC(=O)c1cccnc1S(=O)(=O)NC(=O)Nc1nc(OC)cc(OC)n1` [Compound I, 2-[[(4,6-dimethoxypyrimidin-2-yl)aminocarbonyl]aminosulfonyl]-3-pyridinecarboxylic acid, methyl ester], the “Plant Injury Rating 15 DAT” value (Sunflower) is reported as 100, the “Plant Injury Rating 15 DAT” value (Rape) is reported as 100 and the “Plant Injury Rating 15 DAT” value (Flax) is reported as 100. The “Plant Injury Rating 15 DAT” value (Morex barley) was 100, the “Plant Injury Rating 15 DAT” value (Era wheat) was 100 and the “Control ratings 36 DAT” value (Cirsium arvense; 16 g/ha) was 40. The “Control ratings 36 DAT” value (Cirsium arvense; 32 g/ha) was 50, the “Control ratings 36 DAT” value (Cirsium arvense; 64 g/ha) was 50 and the “Control ratings 36 DAT” value (Agropyron repens; 16 g/ha) was 85. For the same compound, the “Control ratings 36 DAT” value (Agropyron repens; 32 g/ha) was 90, the “Control ratings 36 DAT” value (Agropyron repens; 64 g/ha) was 95 and the “Plant Injury Rating 27 DAT” value (Grapes; Budded grapes, 1 g/ha) was 0. For the same compound, the “Plant Injury Rating 27 DAT” value (Grapes; Budded grapes, 2 g/ha) was 0, the “Plant Injury Rating 27 DAT” value (Grapes; Budded grapes, 4 g/ha) was 0 and the “Plant Injury Rating 27 DAT” value (Grapes; Budded grapes, 8 g/ha) was 0. For the same compound, the “Plant Injury Rating 27 DAT” value (Grapes; Budded grapes, 16 g/ha) was 10, the “Plant Injury Rating 27 DAT” value (Grapes; Budded grapes, 32 g/ha) was 10 and the “Plant Injury Rating 27 DAT” value (Grapes; Seedling grapes, 1 g/ha) was 0. The “Plant Injury Rating 27 DAT” value (Grapes; Seedling grapes, 2 g/ha) was 0, the “Plant Injury Rating 27 DAT” value (Grapes; Seedling grapes, 4 g/ha) was 0 and the “Plant Injury Rating 27 DAT” value (Grapes; Seedling grapes, 8 g/ha) was 10. The “Plant Injury Rating 27 DAT” value (Grapes; Seedling grapes, 16 g/ha) was 20, the “Plant Injury Rating 27 DAT” value (Grapes; Seedling grapes, 32 g/ha) was 20 and the Injury ratings (Johnsongrass) was 100. The weed control (weed) was “could improve the weed control”, the “Plant Injury Rating 27 DAT” value (Narrowleaf panicum; 8 g/ha) was 70 and the “Plant Injury Rating 27 DAT” value (Narrowleaf panicum; 16 g/ha) was 100. The “Plant Injury Rating 27 DAT” value (Narrowleaf panicum; 32 g/ha) was 100, the “Plant Injury Rating 27 DAT” value (Narrowleaf panicum; 64 g/ha) was 100 and the “Plant Injury Rating 27 DAT” value (Itchgrass; 8 g/ha) was 80. For the same compound, the “Plant Injury Rating 27 DAT” value (Itchgrass; 16 g/ha) was 80, the “Plant Injury Rating 27 DAT” value (Itchgrass; 32 g/ha) was 100 and the “Plant Injury Rating 27 DAT” value (Itchgrass; 64 g/ha) was 100. The Injury ratings (Yellow nutsedge) was 100, the “Plant Injury Rating 18 DAT” value (Ball mustard; 16 g/ha) was 100 and the “Plant Injury Rating 18 DAT” value (Ball mustard; 32 g/ha) was 100.

From patent EP0314302A2, “Herbicidal o-carbomethoxy-sulfonylureas” (E.I. DU PONT DE NEMOURS AND COMPANY, priority 1987, dated 1989)
